Experimental data as given in patent US6831080B2, “Cinnamide derivatives as KCNQ potassium channel modulators” (Bristol-Myers Squibb Company, priority 2001, dated 2004).

Key:
[1] = target: T1, mKCNQ2 channels (Mus musculus, UniProt Q9Z351); experiment: Whole-cell patch-clamp, HEK 293 stable cell line expressing mKCNQ2 channels; assay type: cell-based; settings: HEK 293 mKCNQ2, Hill fit; for EC50: @ −40 mV
T1 construct: expressed in transfected cells
Method: Whole-cell patch-clamp recordings were made from an HEK 293 stable cell line expressing mKCNQ2 channels, maintained in culture for 1-2 days. Patch pipettes had initial resistances of 2.5-4 MΩ. Currents were recorded with an EPC-9 amplifier (HEKA, Lambrecht, Germany) controlled with software (Pulse, HEKA) run on a standard lab PC. Series resistance compensation was used during current recording, and set at 80%. The series resistance (R) and cell capacitance (C) were determined electronically by subtracting the capacitive currents at the onset and offset of a 5 mV voltage step. The cancellation of whole-cell capacitance transients was virtually complete in all cells. Analog current signals were low-pass filtered at 2.9 kHz using a four-pole Bessel filter −3 dB) and stored on a local network server computer at a sampling rate of […]. All recordings were performed at room temperature (20-22° C.). The pipette solution contained (mM): KCl, 150; CaCl2, 2.5; EGTA, 5; MgCl2, 1; HEPES, 10; pH to 7.3 with KOH, and Osmolality of 290-300 mOsm. The extracellular solution contained (mM): NaCl, 140; KCl, 2.5; CaCl2, 2.5; MgCl2, 1; glucose, 10; HEPES, 10; pH to 7.3 with NaOH, and Osmolality of 305-310 mOsm
Concentration response data were generated by measuring the difference in the steady-state amplitude of current in the presence of compound at the end of a 600 ms voltage-clamp step from a holding potential of −80 mV. The concentration-response data were fitted with Hill-type equations: […]
where I is the steady-state current at a given concentration of agonist [A]; and Imax, EC50 and nH are parameters estimated from the curve fit. In some cases the concentration-response data were fitted with equations consisting of the sum of two Hill-type components. Current-voltage (I/V) relationships for agonist-evoked currents were obtained by performing 600 ms voltage steps (−110 mV to +40 mV) in the absence and presence of agonist.

[2] = target: cloned mouse KCNQ2 (mKCNQ2) (Mus musculus, UniProt Q9Z351); experiment: KCNQ oocyte two-electrode voltage clamp, whole-cell outward current; assay type: cell-based; settings: 10 μM; single holding potential (−40 μM [sic]); Xenopus oocytes
Method: The ability of compounds described in the present invention to open KCNQ channels and increase whole-cell outward (K^+) KCNQ-mediated currents was assessed under voltage-clamp conditions by determining their ability to increase cloned mouse KCNQ2 (mKCNQ2)-mediated, heteromultimeric KCNQ2/3 (mKCNQ2/hKCNQ3)-mediated, and human KCNQ5 (hKCNQ5)-mediated outward currents heterologously expressed in Xenopus oocytes. Oocytes were prepared and injected using standard techniques; each oocyte was injected with approximately 50 nl of mKCNQ2, or hKCNQ5 cRNA. In the case of mKCNQ2/h3 heteromultimeric channel expression, equal amounts (25-50 nL) of each cRNA were co-injected. […] Following injection, oocytes were maintained at 17° in ND96 medium consisting of (in mM): NaCl, 90; KCl, 1.0; CaCl2, 1.0; MgCl2, 1.0; HEPES, 5.0; pH 7.5. Horse serum (5%) and penicillin/streptomycin (5%) were added to the incubation medium. Recording commenced 2-6 days following mRNA injection. Prior to the start of an experiment oocytes were placed in a recording chamber and incubated in Modified Barth's Solution (MBS) consisting of (in mM): NaCl, 88; NaHCO3, 2.4; KCl, 1.0; HEPES, 10; MgSO4, 0.82; Ca(NO3)2, 0.33; CaCl2, 0.41; pH 7.5.
Oocytes were impaled with electrodes (1-2 MΩ) and standard 2-electrode voltage clamp techniques were employed to record whole-cell membrane currents. Recordings were accomplished using standard two-electrode voltage clamp techniques [Stuhmer, W., et al., Methods in Enzymology, Vol. 207: 319-339 (1992)]. Voltage-clamp protocols typically consisted of a series of voltage steps 1-5 sec duration, in +10 mV steps from a holding potential of −90 mV to a maximal potential of +40 mV; records were digitized at 5 kHz and stored on a computer using pClamp data acquisition and analysis software (Axon Instruments). Compounds were evaluated at a single concentration and at a single holding potential (−40 μM); the effect of the selected compounds of Formula I on KCNQ2 current was expressed as the percent of control current and is listed in Table I.

[3] = test system: streptozoticin-induced tactile allodynia, Sprague Dawley rats; experiment: Diabetic model of neuropathic pain (streptozoticin and von Frey test); assay type: in vivo, rat; settings: 10 mg/kg, i.v.; von Frey thresholds over 90 min; STZ diabetic model
Method: To test agents for activity against systemic polyneuropathy nerve injury-induced tactile allodynia, animals were treated with streptozoticin (STZ) to create a diabetic condition by selective cytotoxic action upon pancreatic β-islet cells that produce insulin following the method of Courteix, et al. (Courteix C., et al., (1993) Pain, April;53(1):81-8). In brief, male Sprague Dawley rats (wt. 200-275 g) received an injection of STZ (75 mg/kg, i.p.) and diabetes was confirmed three weeks after STZ injection by measurement of tail vein blood glucose levels. After 3-4 weeks, paw withdrawal to light touch was assessed as described by Chaplan et al. (Chaplan S. R., et al., (1994) J Neurosci Methods, July;53(1):55-63). In brief, rats are placed in a plastic cage with a wire mesh bottom and allowed to acclimate for 15-30 minutes, until cage exploration and grooming stops. The plantar surface of each hind paw is touched with a series of von Frey hairs with varying stiffness requiring a known force to buckle to determine the nociceptive threshold. Adult male Sprague Dawley rats (avg. wt. 300 g) were tested in the present study. After acclimation, baseline von Frey thresholds were assessed for the injured hindpaw at -15 min. All test compounds were delivered at 0 min by the intravenous (i.v.) route in a volume of 0.5-2 ml/kg. […] Animals were tested in one of the following 4 treatment conditions: […] Following drug administration, von Frey thresholds are measured at 15, 30, 60 and 90 min. Data were analyzed by a 2-way repeated measures analysis of variance followed by Dunnett's test (p<0.05). Experimenters were kept blind to the treatment condition of rats they tested. […] Specifically, drug effects can be described in terms Δ% MPE according to the following equation: {[…] under the curve for von Frey thresholds of the drug-treated group; AUCvehicle=area under the curve for von Frey thresholds in the vehicle group; Time=duration of post-drug testing period (90 min); and Max=maximum von Frey threshold (15 g).

T1 sequence (Q9Z351 whole entry): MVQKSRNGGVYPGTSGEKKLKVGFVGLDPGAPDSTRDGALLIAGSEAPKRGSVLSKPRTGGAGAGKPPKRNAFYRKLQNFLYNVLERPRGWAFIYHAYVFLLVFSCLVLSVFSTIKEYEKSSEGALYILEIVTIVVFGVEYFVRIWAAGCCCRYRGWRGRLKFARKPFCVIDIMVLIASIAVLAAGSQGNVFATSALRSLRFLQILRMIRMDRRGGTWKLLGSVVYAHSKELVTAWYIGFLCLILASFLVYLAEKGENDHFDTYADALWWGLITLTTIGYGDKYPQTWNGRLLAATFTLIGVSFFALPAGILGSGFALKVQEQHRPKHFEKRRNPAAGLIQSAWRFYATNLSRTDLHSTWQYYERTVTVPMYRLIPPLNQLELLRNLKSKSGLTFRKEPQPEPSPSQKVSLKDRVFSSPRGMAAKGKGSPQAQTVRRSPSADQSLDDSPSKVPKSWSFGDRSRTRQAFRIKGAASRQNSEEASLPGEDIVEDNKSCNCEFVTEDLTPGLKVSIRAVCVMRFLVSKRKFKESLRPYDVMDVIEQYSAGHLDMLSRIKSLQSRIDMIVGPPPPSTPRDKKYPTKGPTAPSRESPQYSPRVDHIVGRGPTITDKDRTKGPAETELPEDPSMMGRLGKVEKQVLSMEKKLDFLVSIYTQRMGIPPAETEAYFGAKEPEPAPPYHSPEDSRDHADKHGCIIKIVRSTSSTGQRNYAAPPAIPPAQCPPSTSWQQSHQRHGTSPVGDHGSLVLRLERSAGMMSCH
cloned mouse KCNQ2 (mKCNQ2), sequence (Q9Z351 whole entry): as above

C[C@H](NC(=O)/C=C/c1ccc(F)cc1)c1ccc2ccccc2c1 [Example 1, (S)-3-(4-Fluoro-phenyl)-N-(1-naphthalen-2-yl-ethyl)acrylamide]
EC50 [1]: 9.2 µM
Emax ([1]; HEK293, read-out: Imax (%)): 237%

C[C@H](NC(=O)/C=C/c1ccccc1)c1cccc(N2CCOCC2)c1 [Example 82, (S)-3-Phenyl-N-[1-(3-morpholin-4-yl-phenyl)ethyl]acrylamide]
activity at 10 µM [2]: 197%
AUC (Δ% MPE) [3]: 23 (10 mg/kg, i.v.) Δ% MPE

C[C@H](NC(=O)/C=C/c1ccc(F)cc1)c1ccc(F)c(N2CCOCC2)c1 [Example 169, (S)-N-[1-(4-Fluoro-3-morpholin-4-yl-phenyl)-ethyl]-3-(4-fluoro-phenyl)-acrylamide]
EC50 [1]: 1 µM
AUC (Δ% MPE) [3]: 12 (10 mg/kg, i.v.) Δ% MPE
